Experimental data: US7104958B2, “Systems and methods for investigating intracranial pressure” (New Health Sciences, Inc., priority 2001, dated 2006)

Test system: cerebral vessels
Method: These are the symptoms upon presentation in the neurological clinic. Transcranial Doppler analysis of all cerebral vessels is performed in addition to analyzing the common carotid artery and the internal carotid artery.
The physician considers prescription of Plavix together with a calcium channel blocker. Transcranial Doppler analysis was performed at monthly intervals. […] The physician subsequently administers a higher dose. Again, transcranial Doppler analysis is performed on all cerebral vessels.
The patient is then monitored on a monthly basis after the initial prescription of Plavix in order to determine whether vascular changes are occurring which necessitate alteration in the therapy.

[1] = same patient, higher dose, transcranial Doppler on all cerebral vessels

With `COC(=O)[C@H](c1ccccc1Cl)N1CCc2sccc2C1` [Plavix] the “changes in the individual cerebral vessels” value (person after first stroke, Plavix +/- calcium channel blocker, initial dose, transcranial Doppler at monthly intervals) was “no effect on the cerebral vessels”, the auto-regulation curve [1] was “left-shifts toward normal” and the pulsatility index [1] was “decreases”.
